This is an account of results in publication PMC11219945, “Assessing genotoxic effects of chemotherapy agents by a robust in vitro assay based on mass spectrometric quantification of γ-H2AX in HepG2 cells” (Frontiers in Pharmacology, 2024).

The conditions of data set [1]: combination of in vitro mouse lymphoma, chromosomal aberration, and micronucleus tests; cited from earlier work.
On the set-up of data set [2]: method as in earlier work. Particulars: ref IARC; cited from earlier work.
The test system of data set [3] is γ-H2AX in HepG2 cells. In words: γ-H2AX MS assay, dose-effect relationship in HepG2 cells. Conditions: for maximum γ-H2AX value within the selected concentration range: 24 h; for γ-H2AX MEC/MS (minimum effective concentration): 24 h exposure. The method, then: Human hepatoblastoma cells (HepG2) were cultivated in DMEM medium under standard conditions (37°C in a 5% CO2 atmosphere). The culturing medium was added with 10% FBS, 100 U/mL penicillin and 100 μg/mL streptomycin.
In accordance to our previous study, cells were exposed to the chemotherapeutic agent by adding a proper volume of chemotherapeutic agent stock solution to the fresh medium without serum. Controls were treated with DMSO (0.1%) in medium. Independent biological experiments with three technical replicates were conducted.
The cells were then treated with different chemotherapy agents in serum-free medium. For a dose-effect relationship experiment, cells were exposed to each agent at either of three concentrations with a 10-fold increase for 24 h. For the time-effect relationship experiment of nine tested chemotherapy agents, cells were exposed to selected chemotherapy agents at 0.5, 1, 2, 4, 8, 12, and 24 h, with the concentration of 100 μM. Independent biological experiments with three technical replicates were performed.
(§1) The quantification of γ-H2AX was carried out according to the previous report ([Qu et al., 2021]). In short, the cell clumps were collected after a certain period of cell culture and histones were obtained by acid extraction. After nuclear isolation, histone extraction, trypsin digestion in the solution, and desalting, the peptide sample from the carboxy terminus of H2AX was analyzed. LC–MS/MS analysis was conducted using a QTRAP 5500 (AB Sciex, Framingham, United States) with an ACQUITY UPLC system (Waters Co., Manchester, United Kingdom). Chromatographic separation was carried out with an ACQUITY UPLC BEH C18 column (100 mm × 2.1 mm, 1.7 μm). The column temperature was maintained at 40°C. A 10 μL sample aliquot was injected for analysis. Mobile phases A and B were 0.1% FA in distilled H2O and acetonitrile, respectively. […] The eluent composition was maintained for 2 min, after which the system returned to 1% B and was re-equilibrated for 2 min. The eluates in the first 1 min were switched to waste to prevent contaminating the ion source. The electrospray ionization source was operated in positive mode using nitrogen as the nebulizing gas. All experiments were performed independently in at least triplicate.
To this end, we firstly examined the cytotoxicity of 34 chemotherapy agents, all of which were already well classified in terms of diverse characteristics. These tested chemotherapy agents were serially diluted for exposure to check the effects on cell viability.

Data set [4] deals with γ-H2AX in HepG2 cells. The data set can be described thus: γ-H2AX time-effect relationship / DNA repair kinetics (k, t50) in HepG2 cells. Particulars: 100 μM, 0.5–8 h time-dependent kinetics. Format: cell-based, Human. Also on record: k (speed of γ-H2AX descending): unit not given here. The procedure: The cells were then treated with different chemotherapy agents in serum-free medium. […] Independent biological experiments with three technical replicates were performed.
as §1, with “In” for “The quantification of γ-H2AX was carried out according to the previous report ([Qu et al., 2021]). In”
Here, we estimated k and t50 after exposure to nine representative chemotherapy agents based on the 0.5–8 h γ-H2AX time-dependent kinetics (Figure 5) and then obtained these parameters to describe each agent DSB repair capacity using the functions optim and optimize in R language.

As to `COc1cccc2c1C(=O)c1c(O)c3c(c(O)c1C2=O)C[C@@](O)(C(=O)CO)C[C@@H]3O[C@H]1C[C@H](N)[C@H](O)[C@H](C)O1` [Doxorubicin], the “In vitro assays (genotoxicity)” value in data set [1] was “+”. For the same molecule, in data set [2], the IARC classification group was 2A. Besides, in data set [3] (human), the “maximum γ-H2AX value within the selected concentration range” value is recorded as 21. Moreover, in data set [4], the “k (speed of γ-H2AX descending)” value stood at 0.088 and the “t50 (time required for γ-H2AX to drop to half of the maximum value)” value is reported as 4.269 h.

Consider `COc1cccc2c1C(=O)c1c(O)c3c(c(O)c1C2=O)C[C@@](O)(C(C)=O)C[C@@H]3O[C@H]1C[C@H](N)[C@H](O)[C@H](C)O1` [Daunorubicin], for which the “In vitro assays (genotoxicity)” value in data set [1] is on record as “+”. Besides, the IARC classification group in data set [2] was 2B. Besides, the “maximum γ-H2AX value within the selected concentration range” value in data set [3] (human) was found to be 23. Further, in data set [4], the “k (speed of γ-H2AX descending)” value is reported as 0.139 and the “t50 (time required for γ-H2AX to drop to half of the maximum value)” value is reported as 3.344 h.

On to `O=c1[nH]c(=O)n(C2CCCO2)cc1F` (stereo not shown) [Tegafur], for which the “In vitro assays (genotoxicity)” value in data set [1] is listed as “+”. In data set [3] (human, 100 μM), the “value of γ-H2AX” value came out at 7.2. Moreover, in data set [3] (human), the “maximum γ-H2AX value within the selected concentration range” value amounted to 7.2. In data set [4], the “k (speed of γ-H2AX descending)” value is listed as 3.015 and the “t50 (time required for γ-H2AX to drop to half of the maximum value)” value was determined as 1.442 h.

Turning to Deoxyfluridine, the “In vitro assays (genotoxicity)” value in data set [1] is given as “+”. The “value of γ-H2AX” value in data set [3] (HepG2 cells, 100 μM of exposure concentration) is 8.4. For the same molecule, in data set [3] (HepG2 cells), the “maximum γ-H2AX value within the selected concentration range” value is 8.4 and the “γ-H2AX MEC/MS (minimum effective concentration)” value is reported as “↑(10) µM”. Also, the “γ-H2AX MEC/MS (minimum effective concentration)” value in data set [3] (HepG2 cells, listed as deoxyfluridine) stood at 10 µM. For the same molecule, in data set [4], the “k (speed of γ-H2AX descending)” value was found to be 4.157 and the “t50 (time required for γ-H2AX to drop to half of the maximum value)” value stood at 1.201 h.
